Values of other authors, collected in patent US20030190360A1, “Chronotherapeutic dosage forms containing glucocorticosteroid and methods of treatment” (priority 2001, published 2003).

details: equivalent doses of glucocorticoids

| Compound | Approximate Equivalent Dose [mg] |
| --- | --- |
| C[C@]12CCC(=O)C=C1CC[C@@H]1[C@@H]2C(=O)C[C@@]2(C)[C@H]1CC[C@]2(O)C(=O)CO [Cortisone] | 25 |
| C[C@]12CCC(=O)C=C1CC[C@@H]1[C@@H]2[C@@H](O)C[C@@]2(C)[C@H]1CC[C@]2(O)C(=O)CO [Hydrocortisone] | 20 |
| C[C@]12C=CC(=O)C=C1CC[C@@H]1[C@@H]2[C@@H](O)C[C@@]2(C)[C@H]1CC[C@]2(O)C(=O)CO [Prednisolone] | 5 |
| C[C@]12C=CC(=O)C=C1CC[C@H]1[C@@H]3C[C@@H](O)[C@](O)(C(=O)CO)[C@@]3(C)C[C@H](O)[C@@]12F [Triamcinolone] | 4 |
